Measurements published in patent US10479780B2, “Aminopyrazole derivatives” (Chugai Seiyaku Kabushiki Kaisha, priority 2015, dated 2019).
Read-outs that look alike come from different tables or passages of the source.

Experiments:
Assay type in all cases: biochemical
human Yes1 enzyme = molecular target: T1, human Yes1 enzyme (Homo sapiens, UniProt P07947); experiment: Yes1 enzyme inhibitory activity (time-resolved fluorometry, biotinylated peptide phosphorylation); settings: read-out: YES_IC50
T1 construct: made in house
Procedure: (§1) 1. Yes1 Enzyme Inhibitory Activity Yes1 inhibitory activity was determined based on activity of inhibiting phosphorylation reaction of a biotinylated peptide (EGPWLEEEEEAYGWMDF) using a human Yes1 enzyme prepared using a baculovirus expression system. The phosphorylated biotinylated peptide was detected by time-resolved fluorometry using an anti-phosphorylated tyrosine antibody conjugated to europium cryptate, and streptavidin conjugated to XL665, an allophycocyanin derivative. The 50% inhibitory concentration (IC50) was calculated from the inhibition rate relative to the control group without containing the test substance.

human Src enzyme = molecular target: T2, human Src enzyme (Homo sapiens, UniProt P12931); experiment: Src enzyme inhibitory activity (time-resolved fluorometry, biotinylated peptide phosphorylation); settings: read-out: SRC_IC50
T2 construct: purchased Carna Biosciences, Inc. 08-173
Procedure: as §1, with “2. Src” for “1. Yes1”, “Src” for “Yes1”, “(manufactured by Carna Biosciences, Inc., cat 08-173).” for “prepared using a baculovirus expression system.”

human Lck enzyme = molecular target: T3, human Lck enzyme (Homo sapiens, UniProt P06239); experiment: Lck enzyme inhibitory activity (time-resolved fluorometry, biotinylated peptide phosphorylation); settings: read-out: LCK_IC50
T3 construct: purchased Carna Biosciences, Inc. 08-170
Procedure: as §1, with “3. Lck” for “1. Yes1”, “Lck” for “Yes1”, “(manufactured by Carna Biosciences, Inc., cat 08-170).” for “prepared using a baculovirus expression system.”

[1] = biotinylated peptide phosphorylation

T1 sequence (P07947 whole entry): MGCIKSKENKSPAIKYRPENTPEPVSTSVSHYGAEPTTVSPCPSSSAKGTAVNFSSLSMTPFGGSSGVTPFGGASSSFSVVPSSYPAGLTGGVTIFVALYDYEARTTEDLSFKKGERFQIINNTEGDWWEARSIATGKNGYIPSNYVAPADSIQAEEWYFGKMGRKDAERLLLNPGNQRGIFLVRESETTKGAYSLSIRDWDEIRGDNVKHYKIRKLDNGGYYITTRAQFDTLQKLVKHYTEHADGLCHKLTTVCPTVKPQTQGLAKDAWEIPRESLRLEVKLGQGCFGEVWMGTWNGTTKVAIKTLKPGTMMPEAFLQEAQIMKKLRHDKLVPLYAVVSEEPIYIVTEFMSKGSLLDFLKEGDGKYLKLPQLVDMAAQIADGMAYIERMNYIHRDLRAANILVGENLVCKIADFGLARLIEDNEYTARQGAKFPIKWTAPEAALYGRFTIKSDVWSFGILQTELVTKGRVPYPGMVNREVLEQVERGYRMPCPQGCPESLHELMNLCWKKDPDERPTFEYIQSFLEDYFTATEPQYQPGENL
T3 sequence (P06239 whole entry): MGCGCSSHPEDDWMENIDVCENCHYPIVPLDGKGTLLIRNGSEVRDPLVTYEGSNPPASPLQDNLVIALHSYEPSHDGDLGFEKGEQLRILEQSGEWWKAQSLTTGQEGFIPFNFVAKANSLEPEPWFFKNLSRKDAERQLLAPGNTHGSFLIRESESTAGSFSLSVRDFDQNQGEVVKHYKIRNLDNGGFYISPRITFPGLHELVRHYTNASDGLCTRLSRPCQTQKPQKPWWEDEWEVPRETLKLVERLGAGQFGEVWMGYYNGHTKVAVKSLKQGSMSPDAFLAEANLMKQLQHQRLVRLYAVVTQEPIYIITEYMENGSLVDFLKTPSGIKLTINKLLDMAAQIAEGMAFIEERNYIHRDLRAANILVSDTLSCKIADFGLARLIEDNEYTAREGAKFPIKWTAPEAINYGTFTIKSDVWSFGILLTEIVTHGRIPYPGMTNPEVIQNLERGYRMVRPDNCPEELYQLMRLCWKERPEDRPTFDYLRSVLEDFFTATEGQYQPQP
T2 sequence (P12931 whole entry): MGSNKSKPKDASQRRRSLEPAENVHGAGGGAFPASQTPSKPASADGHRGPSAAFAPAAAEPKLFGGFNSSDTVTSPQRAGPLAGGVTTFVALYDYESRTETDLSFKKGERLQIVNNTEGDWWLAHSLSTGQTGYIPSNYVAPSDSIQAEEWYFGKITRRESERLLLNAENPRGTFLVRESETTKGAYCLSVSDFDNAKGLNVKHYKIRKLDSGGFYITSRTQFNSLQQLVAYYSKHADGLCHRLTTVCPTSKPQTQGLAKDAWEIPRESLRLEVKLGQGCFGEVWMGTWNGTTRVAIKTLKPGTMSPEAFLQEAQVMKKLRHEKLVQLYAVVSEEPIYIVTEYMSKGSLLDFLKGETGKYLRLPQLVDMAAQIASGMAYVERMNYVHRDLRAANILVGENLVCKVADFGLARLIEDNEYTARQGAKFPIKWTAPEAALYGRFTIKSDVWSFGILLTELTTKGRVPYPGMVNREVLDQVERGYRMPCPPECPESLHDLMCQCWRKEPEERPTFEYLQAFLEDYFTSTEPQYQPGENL

Q: What does the source list for `Cc1cc(Oc2c(F)cccc2F)ncc1-n1ncc(C(=O)c2cc3cc(OC4CCN(C5CCCC5)CC4)c(-c4ccccc4C(F)(F)F)cc3[nH]2)c1N` [Example 5-1-387, [5-amino-1-[6-(2,6-difluorophenoxy)-4-methylpyridin-3-yl]pyrazol-4-yl]-[5-(1-cyclopentylpiperidin-4-yl)oxy-6-[2-(trifluoromethyl)phenyl]-1H-indol-2-yl] methanone]?
A: IC50 (human Yes1 enzyme): 3.1 nM; IC50 (human Src enzyme): 190 nM; IC50 (human Lck enzyme): 29 nM

Q: Which results are given for `Cc1cc(-n2ncc(C(=O)c3cc4cc(F)c(NS(C)(=O)=O)cc4[nH]3)c2N)ccc1Oc1ccccc1F` [Example 5-1-017, N-[2-[5-amino-1-[4-(2-fluorophenoxy)-3-methylphenyl]pyrazole-4-carbonyl]-5-fluoro-1H-indol-6-yl]methanesulfonamide]?
A: IC50 (human Yes1 enzyme): 4.5 nM; IC50 (human Src enzyme): 2400 nM; IC50 (human Lck enzyme): 630 nM

Q: Which IC50 (human Yes1 enzyme; [1]) does the source give for `CC(C)N1CCC(c2cc3cc(C(=O)c4cnn(-c5ccc(Oc6ccccc6Cl)cc5F)c4N)[nH]c3cc2F)CC1` [Example 4-2-008, [5-amino-1-[4-(2-chlorophenoxy)-2-fluorophenyl]pyrazol-4-yl]-[6-fluoro-5-(1-propan-2-ylpiperidin-4-yl)-1H-indol-2-yl]methanone] here?
A: 1.1 nM

Q: What about the IC50 (human Src enzyme; [1]) of the same compound?
A: 5.4 nM

Q: And the IC50 (human Lck enzyme; [1])?
A: 2.5 nM

Q: With `Cc1cc(-n2ncc(C(=O)c3cc4cc(F)c(NS(C)(=O)=O)cc4[nH]3)c2N)cnc1Oc1cccc(Cl)c1` [Example 5-1-042, N-[2-[5-amino-1-[6-(3-chlorophenoxy)-5-methylpyridin-3-yl]pyrazole-4-carbonyl]-5-fluoro-1H-indol-6-yl]methanesulfonamide] as the compound, how does the IC50 (human Yes1 enzyme) read?
A: 270 nM

Q: And the IC50 (human Lck enzyme)?
A: 1900 nM

Q: Which IC50 (human Yes1 enzyme) does the source give for `Cc1cc(-n2ncc(C(=O)c3cc4cc(OC(F)F)c(Br)cc4[nH]3)c2N)ccc1Oc1ccccc1F` [Example 5-1-152, [5-amino-1-[4-(2-fluorophenoxy)-3-methylphenyl]pyrazol-4-yl]-[6-bromo-5-(difluoromethoxy)-1H-indol-2-yl]methanone] here?
A: 7.3 nM

Q: And the IC50 (human Lck enzyme)?
A: 7800 nM

Q: What does the source list for `Cc1cc(-n2ncc(C(=O)c3cc4cc(C)c(N5C(=O)NC(C)(C(F)(F)F)C5=O)cc4[nH]3)c2N)ccc1Oc1ccccc1F` (stereo not drawn) [Example 5-1-472, 3-[2-[5-amino-1-[4-(2-fluorophenoxy)-3-methylphenyl]pyrazole-4-carbonyl]-5-methyl-1H-indol-6-yl]-5-methyl-5-(trifluoromethyl) imidazolidine-2,4-dione]?
A: IC50 (human Yes1 enzyme; [1]): 40 nM; IC50 (human Lck enzyme; [1]): 710 nM

Q: Which results are given for `Cc1cc(-n2ncc(C(=O)c3cc4cc(F)c(NS(C)(=O)=O)cc4[nH]3)c2N)cnc1Oc1cccc(F)c1F` [Example 5-1-044, N-[2-[5-amino-1-[6-(2,3-difluorophenoxy)-5-methylpyridin-3-yl]pyrazole-4-carbonyl]-5-fluoro-1H-indol-6-yl]methanesulfonamide]?
A: IC50 (human Yes1 enzyme): 52 nM; IC50 (human Lck enzyme): 2700 nM

Q: Which IC50 (human Yes1 enzyme; [1]) does the source give for `Cc1cc(-n2ncc(C(=O)c3cc4cc(C)c(N5C(=O)NC6(CCCCC6)C5=O)cc4[nH]3)c2N)ccc1Oc1ccccc1F` [Example 5-1-470, 3-[2-[5-amino-1-[4-(2-fluorophenoxy)-3-methylphenyl]pyrazole-4-carbonyl]-5-methyl-1H-indol-6-yl]-1,3-diazaspiro[4.5]decane-2,4-dione] here?
A: 31 nM

Q: What about the IC50 (human Lck enzyme; [1]) of the same compound?
A: 870 nM

Q: For `Cc1cc(-n2ncc(C(=O)c3cc4cc(F)c(NS(C)(=O)=O)cc4[nH]3)c2N)cnc1Oc1c(F)cccc1Cl` [Example 5-1-043, N-[2-[5-amino-1-[6-(2-chloro-6-fluorophenoxy)-5-methylpyridin-3-yl]pyrazole-4-carbonyl]-5-fluoro-1H-indol-6-yl] methanesulfonamide], which IC50 (human Yes1 enzyme) is on record?
A: 38 nM

Q: What about the IC50 (human Lck enzyme) of the same compound?
A: 2600 nM

Q: Which IC50 (human Yes1 enzyme) does the source give for `Cc1cc2cc(C(=O)c3cnn(-c4ccc(Oc5cccc(F)c5)c(C)c4)c3N)[nH]c2cc1NS(C)(=O)=O` [Example 5-1-211, N-[2-[5-amino-1-[4-(3-fluorophenoxy)-3-methylphenyl]pyrazole-4-carbonyl]-5-methyl-1H-indol-6-yl]methanesulfonamide] here?
A: 26 nM

Q: What about the IC50 (human Lck enzyme) of the same compound?
A: 4400 nM

Q: What does the source list for `Cc1cc(-n2ncc(C(=O)c3cc4cc(OC5CCN(C6CS(=O)(=O)C6)CC5)c(-c5ccccc5C(F)(F)F)cc4[nH]3)c2N)ccc1Oc1ccccc1F` [Example 5-1-386, (5-amino-1-(4-(2-fluorophenoxy)-3-methylphenyl)-1H-pyrazol-4-yl)(5-((1-(1,1-dioxidothietan-3-yl)piperidin-4-yl)oxy)-6-(2-(trifluoromethyl)phenyl)-1H-indol-2-yl)methanone]?
A: IC50 (human Yes1 enzyme): 3.9 nM; IC50 (human Lck enzyme): 1000 nM

Q: Which results are given for `Cc1cc(-n2ncc(C(=O)c3cc4cc(C)c(N5C(=O)NC6(CCCC6)C5=O)cc4[nH]3)c2N)ccc1Oc1ccccc1F` [Example 5-1-474, 3-[2-[5-amino-1-[4-(2-fluorophenoxy)-3-methylphenyl]pyrazole-4-carbonyl]-5-methyl-1H-indol-6-yl]-1,3-diazaspiro[4.4]nonane-2,4-dione]?
A: IC50 (human Yes1 enzyme; [1]): 27 nM; IC50 (human Lck enzyme; [1]): 650 nM

Q: For `Cc1cc2cc(C(=O)c3cnn(-c4ccc(Oc5ccccc5F)c(C)c4)c3N)[nH]c2cc1NS(C)(=O)=O` [Example 5-1-307, N-[2-[5-amino-1-[4-(2-fluorophenoxy)-3-methylphenyl]pyrazole-4-carbonyl]-5-methyl-1H-indol-6-yl]methanesulfonamide], which IC50 (human Yes1 enzyme) is on record?
A: 26 nM

Q: What about the IC50 (human Lck enzyme) of the same compound?
A: 720 nM

Q: How did the IC50 (human Yes1 enzyme; [1]) turn out when `Cc1cc(-n2ncc(C(=O)c3cc4cc(C)c(N5C(=O)NC6(CCN(C(=O)OC(C)(C)C)CC6)C5=O)cc4[nH]3)c2N)ccc1Oc1ccccc1F` [Example 5-1-471, tert-Butyl 3-[2-[5-amino-1-[4-(2-fluorophenoxy)-3-methylphenyl]pyrazole-4-carbonyl]-5-methyl-1H-indol-6-yl]-2,4-dioxo-1,3,8-triazaspiro[4.5]decane-8-carboxylate] was run?
A: 81 nM

Q: And the IC50 (human Lck enzyme; [1])?
A: 980 nM

Q: `Cc1cc2cc(C(=O)c3cnn(-c4cc(C)c(Oc5ccccc5F)cc4F)c3N)[nH]c2cc1NS(C)(=O)=O` [Example 5-1-206, N-[2-[5-amino-1-[2-fluoro-4-(2-fluorophenoxy)-5-methylphenyl]pyrazole-4-carbonyl]-5-methyl-1H-indol-6-yl]methanesulfonamide] was tested. Which IC50 (human Yes1 enzyme) did it give?
A: 9.1 nM

Q: What does the source list for `Cc1cc(-n2ncc(C(=O)c3cc4cc(OC5CCN(C6CS(=O)(=O)C6)CC5)c(-c5ccccc5C)cc4[nH]3)c2N)ccc1Oc1ccccc1F` [Example 5-1-336, [5-amino-1-[4-(2-fluorophenoxy)-3-methylphenyl]pyrazol-4-yl]-[5-[1-(1,1-dioxothietan-3-yl)piperidin-4-yl]oxy-6-(2-methylphenyl)-1H-indol-2-yl]methanone]?
A: IC50 (human Yes1 enzyme): 4.2 nM; IC50 (human Lck enzyme): 240 nM

Q: Which results are given for `Cc1cc(-n2ncc(C(=O)c3cc4cc(F)c(NS(=O)(=O)C5CCOCC5)cc4[nH]3)c2N)ccc1Oc1ccccc1F` [Example 5-1-493, N-[2-[5-amino-1-[4-(2-fluorophenoxy)-3-methylphenyl]pyrazole-4-carbonyl]-5-fluoro-1H-indol-6-yl]oxane-4-sulfonamide]?
A: IC50 (human Yes1 enzyme; [1]): 5.3 nM; IC50 (human Lck enzyme; [1]): 3000 nM

Q: `Cc1cc(-n2ncc(C(=O)c3cc4cc(F)c(NS(C)(=O)=O)cc4[nH]3)c2N)cnc1Oc1cc(F)cc(F)c1` [Example 5-1-045, N-[2-[5-amino-1-[6-(3,5-difluorophenoxy)-5-methylpyridin-3-yl]pyrazole-4-carbonyl]-5-fluoro-1H-indol-6-yl]methanesulfonamide] was tested. Which IC50 (human Yes1 enzyme) did it give?
A: 210 nM

Q: What about the IC50 (human Lck enzyme) of the same compound?
A: 4400 nM

Q: With `Cc1cc(-n2ncc(C(=O)c3cc4cc(OCC(F)F)c(Br)cc4[nH]3)c2N)ccc1Oc1ccccc1F` [Example 5-1-150, [5-amino-1-[4-(2-fluorophenoxy)-3-methylphenyl]pyrazol-4-yl]-[6-bromo-5-(2,2-difluoroethoxy)-1H-indol-2-yl]methanone] as the compound, how does the IC50 (human Yes1 enzyme) read?
A: 4.8 nM

Q: And the IC50 (human Lck enzyme)?
A: 320 nM

Q: For `Cc1cc(-n2ncc(C(=O)c3cc4cc(OC5CCN(C6CS(=O)(=O)C6)CC5)c(-c5ccccc5Cl)cc4[nH]3)c2N)ccc1Oc1ccccc1F` [Example 5-1-289, [5-amino-1-[4-(2-fluorophenoxy)-3-methylphenyl]pyrazol-4-yl]-[6-(2-chlorophenyl)-5-[1-(1,1-dioxothietan-3-yl)piperidin-4-yl]oxy-1H-indol-2-yl]methanone], which IC50 (human Yes1 enzyme) is on record?
A: 3.4 nM

Q: And the IC50 (human Lck enzyme)?
A: 400 nM

Q: For `Cc1cc(-n2ncc(C(=O)c3cc4cc(F)c(NS(C)(=O)=O)cc4[nH]3)c2N)cnc1Oc1ccccc1Cl` [Example 5-1-041, N-[2-[5-amino-1-[6-(2-chlorophenoxy)-5-methylpyridin-3-yl]pyrazole-4-carbonyl]-5-fluoro-1H-indol-6-yl]methanesulfonamide], which IC50 (human Yes1 enzyme) is on record?
A: 93 nM

Q: What about the IC50 (human Lck enzyme) of the same compound?
A: 2000 nM

Q: `Cc1cc(-n2ncc(C(=O)c3cc4cc(OCC(F)F)c(-c5cccs5)cc4[nH]3)c2N)ccc1Oc1ccccc1F` [Example 5-1-256, [5-amino-1-[4-(2-fluorophenoxy)-3-methylphenyl]pyrazol-4-yl]-[5-(2,2-difluoroethoxy)-6-thiophen-2-yl-1H-indol-2-yl] methanone] was tested. Which IC50 (human Yes1 enzyme) did it give?
A: 120 nM
